Reference: ChEMBL document CHEMBL1201862, “PubChem BioAssay data set” (2004)
The source made the active and inactive calls.

Key:
[1] = target: T1, Intestinal-type alkaline phosphatase (Homo sapiens, UniProt P09923); experiment: human intestinal alkaline phosphatase activators, dose response, biochemical, luminescence, uHTS hits (AID 463120); format: functional
[2] = target: T2, Zinc finger protein mex-5 (Caenorhabditis elegans, UniProt Q9XUB2); experiment: potency of MEX-5 RNA-binding blockers – biochemical, C. elegans, fluorescence polarization, dose response (AID 1960)
T2 sequence (Q9XUB2 whole entry): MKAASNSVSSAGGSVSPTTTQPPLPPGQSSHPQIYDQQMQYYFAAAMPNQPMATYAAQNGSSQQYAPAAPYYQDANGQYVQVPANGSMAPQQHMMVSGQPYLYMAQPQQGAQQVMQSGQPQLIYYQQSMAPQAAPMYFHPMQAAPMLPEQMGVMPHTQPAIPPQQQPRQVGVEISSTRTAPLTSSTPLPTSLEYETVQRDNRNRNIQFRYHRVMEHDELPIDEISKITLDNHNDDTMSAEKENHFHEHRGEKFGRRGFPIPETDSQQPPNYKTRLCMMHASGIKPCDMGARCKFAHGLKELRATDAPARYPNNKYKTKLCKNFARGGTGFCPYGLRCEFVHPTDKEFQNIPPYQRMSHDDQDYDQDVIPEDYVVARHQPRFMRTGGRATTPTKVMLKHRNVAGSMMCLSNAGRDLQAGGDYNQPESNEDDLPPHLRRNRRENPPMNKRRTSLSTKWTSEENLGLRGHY

[3] = target: T3, Alkaline phosphatase, tissue-nonspecific isozyme (Homo sapiens, UniProt P05186); experiment: activation of tissue-nonspecific alkaline phosphatase – biochemical, TNAP isozyme, human IAP uHTS hits, selectivity assay for human IAP activator project, dose response (AID 488886); format: functional;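 also: potency of compounds raising TNAP activity as a selectivity check on IAP activators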
T3 sequence (P05186 whole entry): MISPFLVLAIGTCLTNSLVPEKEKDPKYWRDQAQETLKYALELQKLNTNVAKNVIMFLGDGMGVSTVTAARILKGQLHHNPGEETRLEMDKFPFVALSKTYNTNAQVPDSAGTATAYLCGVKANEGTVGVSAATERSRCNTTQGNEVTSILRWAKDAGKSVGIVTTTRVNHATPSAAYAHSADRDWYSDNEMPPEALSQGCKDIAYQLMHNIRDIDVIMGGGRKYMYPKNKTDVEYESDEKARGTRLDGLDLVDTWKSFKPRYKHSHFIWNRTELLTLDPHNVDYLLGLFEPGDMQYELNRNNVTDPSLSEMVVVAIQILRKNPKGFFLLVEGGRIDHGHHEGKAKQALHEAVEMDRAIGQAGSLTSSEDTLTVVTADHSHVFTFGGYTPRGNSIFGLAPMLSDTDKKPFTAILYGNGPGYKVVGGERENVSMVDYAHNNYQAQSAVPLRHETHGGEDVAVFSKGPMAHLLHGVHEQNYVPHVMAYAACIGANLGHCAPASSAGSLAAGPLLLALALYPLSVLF

[4] = target: T4, RNA-binding protein pos-1 (Caenorhabditis elegans, UniProt G5EF15); experiment: disruptors of C. elegans POS-1 RNA interaction – biochemical, fluorescence polarization, dose response (AID 1964);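 also: purified POS-1 fused to maltose binding protein made in E. coli; potency of compounds blocking POS-1 binding to fluorescent RNA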
T4 sequence (G5EF15 whole entry): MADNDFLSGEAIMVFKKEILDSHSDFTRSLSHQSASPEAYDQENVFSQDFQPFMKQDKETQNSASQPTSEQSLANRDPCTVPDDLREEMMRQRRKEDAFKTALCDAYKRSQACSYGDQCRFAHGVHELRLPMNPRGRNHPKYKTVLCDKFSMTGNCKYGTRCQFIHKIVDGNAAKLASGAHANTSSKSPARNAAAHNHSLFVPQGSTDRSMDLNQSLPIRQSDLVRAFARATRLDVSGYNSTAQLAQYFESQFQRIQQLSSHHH

[5] = target: T1, Intestinal-type alkaline phosphatase; experiment: activation of human intestinal alkaline phosphatase – biochemical, luminescent, uHTS hits, set 2, dose response (AID 488817); format: functional;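 also: potency of activators that raise enzyme activity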
[6] = target: Intestinal-type alkaline phosphatase (Mus musculus, UniProt P24822); experiment: PubChem AID 488874; format: functional
[7] = target: Albumin (Bos taurus, UniProt P02769); experiment: Counterscreen for inhibitors of T-cell receptor (TCR)-CD3 interaction: Fluorescence-based biochemical high throughput dose response assay to identify inhibitors of T-cell receptor (TCR)-CD3 interaction using a TAMRA-labeled BSA probe.; format: functional
[8] = target: T5, Mannose-6-phosphate isomerase (Homo sapiens, UniProt P34949); experiment: phosphomannose isomerase inhibition – biochemical, fluorescence intensity, confirmation (AID 1535)
T5 sequence (P34949 whole entry): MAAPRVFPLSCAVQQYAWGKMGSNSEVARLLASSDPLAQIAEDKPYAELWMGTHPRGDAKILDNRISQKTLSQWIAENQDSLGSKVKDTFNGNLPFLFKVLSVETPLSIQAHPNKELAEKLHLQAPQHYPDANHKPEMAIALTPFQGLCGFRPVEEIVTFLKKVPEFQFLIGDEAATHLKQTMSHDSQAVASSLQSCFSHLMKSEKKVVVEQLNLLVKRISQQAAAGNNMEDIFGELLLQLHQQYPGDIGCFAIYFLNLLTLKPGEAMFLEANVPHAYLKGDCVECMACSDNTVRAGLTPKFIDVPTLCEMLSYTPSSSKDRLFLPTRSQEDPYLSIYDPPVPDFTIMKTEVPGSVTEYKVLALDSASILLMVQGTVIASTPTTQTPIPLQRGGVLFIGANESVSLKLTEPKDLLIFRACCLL

[9] = target: T6, Phosphomannomutase 2 (Homo sapiens, UniProt O15305); experiment: Counter screen SAR assay for PMM2 inhibitors via a fluorescence intensity assay. [Related pubchem assays (depositor defined):AID1545, AID1574]
T6 sequence (O15305 whole entry): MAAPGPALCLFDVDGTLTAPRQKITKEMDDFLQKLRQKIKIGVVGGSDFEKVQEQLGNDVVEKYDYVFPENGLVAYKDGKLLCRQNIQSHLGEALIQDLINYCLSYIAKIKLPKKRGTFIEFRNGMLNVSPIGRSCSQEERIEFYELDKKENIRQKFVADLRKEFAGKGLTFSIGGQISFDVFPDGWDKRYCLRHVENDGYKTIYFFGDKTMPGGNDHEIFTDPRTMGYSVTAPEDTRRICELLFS

T1 sequence (P09923 whole entry): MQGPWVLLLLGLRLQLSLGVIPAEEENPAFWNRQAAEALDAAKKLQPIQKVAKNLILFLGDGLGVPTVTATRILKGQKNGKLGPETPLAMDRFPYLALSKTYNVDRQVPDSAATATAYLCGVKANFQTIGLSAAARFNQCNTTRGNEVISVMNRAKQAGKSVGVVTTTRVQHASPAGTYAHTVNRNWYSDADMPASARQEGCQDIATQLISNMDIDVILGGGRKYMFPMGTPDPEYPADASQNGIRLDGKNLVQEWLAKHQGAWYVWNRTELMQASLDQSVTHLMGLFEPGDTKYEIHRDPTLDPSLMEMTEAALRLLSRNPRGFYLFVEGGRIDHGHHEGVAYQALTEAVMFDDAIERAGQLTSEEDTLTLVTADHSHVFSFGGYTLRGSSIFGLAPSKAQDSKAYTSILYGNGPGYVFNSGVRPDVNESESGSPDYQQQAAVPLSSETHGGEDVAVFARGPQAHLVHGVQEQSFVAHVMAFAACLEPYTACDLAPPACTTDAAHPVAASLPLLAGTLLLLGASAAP
Sequence of Intestinal-type alkaline phosphatase (Mus musculus, UniProt P24822) (P24822 whole entry): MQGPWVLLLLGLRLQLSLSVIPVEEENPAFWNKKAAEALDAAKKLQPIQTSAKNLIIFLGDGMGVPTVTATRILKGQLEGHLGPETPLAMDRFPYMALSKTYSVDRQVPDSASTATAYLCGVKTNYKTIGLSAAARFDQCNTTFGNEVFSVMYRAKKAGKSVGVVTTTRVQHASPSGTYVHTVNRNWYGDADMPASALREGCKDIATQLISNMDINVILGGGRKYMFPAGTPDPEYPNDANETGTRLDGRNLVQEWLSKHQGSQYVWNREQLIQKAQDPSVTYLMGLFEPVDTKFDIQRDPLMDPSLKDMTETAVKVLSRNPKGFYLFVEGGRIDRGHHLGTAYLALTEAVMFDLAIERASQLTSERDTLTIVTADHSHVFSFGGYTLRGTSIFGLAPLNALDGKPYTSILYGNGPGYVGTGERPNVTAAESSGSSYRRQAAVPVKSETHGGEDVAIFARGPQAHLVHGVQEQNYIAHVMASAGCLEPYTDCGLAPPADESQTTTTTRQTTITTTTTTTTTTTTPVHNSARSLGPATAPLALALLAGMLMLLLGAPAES
Sequence of Albumin (P02769 whole entry): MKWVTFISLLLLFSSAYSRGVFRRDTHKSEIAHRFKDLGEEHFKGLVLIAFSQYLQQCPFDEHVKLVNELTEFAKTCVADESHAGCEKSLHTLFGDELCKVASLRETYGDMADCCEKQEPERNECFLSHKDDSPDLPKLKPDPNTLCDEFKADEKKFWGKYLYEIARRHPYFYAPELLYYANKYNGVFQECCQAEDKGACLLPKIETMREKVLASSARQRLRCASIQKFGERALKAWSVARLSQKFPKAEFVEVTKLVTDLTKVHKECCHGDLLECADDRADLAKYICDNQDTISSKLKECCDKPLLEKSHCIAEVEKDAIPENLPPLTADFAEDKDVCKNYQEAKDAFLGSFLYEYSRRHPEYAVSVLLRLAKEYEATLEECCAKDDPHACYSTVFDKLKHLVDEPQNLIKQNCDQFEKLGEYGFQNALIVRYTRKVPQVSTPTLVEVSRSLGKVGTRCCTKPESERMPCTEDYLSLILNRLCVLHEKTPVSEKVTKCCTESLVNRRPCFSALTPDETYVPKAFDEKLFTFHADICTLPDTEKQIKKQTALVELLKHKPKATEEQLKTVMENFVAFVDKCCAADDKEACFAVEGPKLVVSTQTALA

| EC50 [1] | EC50 [2] | EC50 [3] | EC50 [4] | EC50 [5] | IC50 [6] | IC50 [7] | IC50 [8] | IC50 [9] | SMILES |
| --- | --- | --- | --- | --- | --- | --- | --- | --- | --- |
| 8.07 µM (active) | 21 µM (active) | 12.2 µM (active) | > 300 µM (not active) | 10.7 µM (active) | 64.2 µM (active) |  |  |  | Cc1nc2c3ccccc3nc(NNC(=O)CCC(=O)N3CCCC(C)C3)n2n1 (stereo not drawn) |
| 8.21 µM (active) |  | > 100 µM (inactive) |  | 8.77 µM (active) | 35.5 µM (active) | > 94.2 µM (inactive) |  |  | O=Nc1nc(O)c(/C=C(\O)c2ccccc2)nc1NO |
|  |  |  |  |  |  |  | 26.1 µM (active) | 95.4 µM (active) | Cc1ccc(/N=c2\ssnc2Cl)cc1C |
